In assay [1] the test system is compound 1-resistant Mtb mutants (SRM59, Rv0637/hadC:K157R). Format: cell-based, Mycobacterium tuberculosis.
For assay [2], the system named is EthA mutant (C253R) of Mtb. The conditions noted are these: cited from earlier work.
Assay [3] deals with Mtb/pNIP40b-hadABC. Kind of assay: microbe, parasite or virus in culture. Format: cell-based. The conditions noted are these: Mycobacterium tuberculosis, read-out: MIC Mtb/pNIP40b-hadABC.

The values below come from PMC9673142, “1,3-Diarylpyrazolyl-acylsulfonamides Target HadAB/BC Complex in Mycobacterium tuberculosis” (ACS Infectious Diseases, 2022).

Each structure is given as a SMILES string. ≈ marks a conversion by molar mass, not a printed value.

With `CS(=O)(=O)NC(=O)CCc1cn(-c2ccc(Br)cc2)nc1-c1ccncc1` [Compound 1], in assay [1], the “Compound 1 MIC, SRM59-1” value was 50 to 100 µM; the “Compound 1 MIC, SRM59-2” value was in the range of 50 to 100 µM; the “Compound 1 MIC, SRM59-3” value lay in the range of 50 to 100 µM. Besides, the “change in MIC against EthA mutant (C253R)” value in assay [2] is “no change”. Consider `CS(=O)(=O)NC(=O)CCc1cn(-c2ccc(Cl)cc2)nc1-c1ccc(Cl)cc1` [Compound 2], for which the MIC in assay [3] is 2.5 µM (≈ 1.1 µg/mL). For the same molecule, the “change in MIC against EthA mutant (C253R)” value in assay [2] is given as “no change”.

For `O=C(O)CCc1cn(-c2ccc(Br)cc2)nc1-c1ccc(Cl)cc1` [Compound 10], in assay [3], the MIC is 3 µM (≈ 1.22 µg/mL). In the case of `CS(=O)(=O)NC(=O)NCc1cn(-c2ccc(C(F)(F)F)nc2)nc1-c1ccncc1` [Compound 11], in assay [3], the MIC was more than 40 µM. `O=c1[nH]nc(CCc2cn(-c3ccc(Br)cc3)nc2-c2ccc(Cl)cc2)o1` [Compound 12]: in assay [3], the MIC was 12.5 µM (≈ 5.57 µg/mL).

In the case of `CS(=O)(=O)c1nnc(Cc2cn(-c3ccc(Cl)cc3)nc2-c2ccncc2)o1` [Compound 13], the MIC in assay [3] amounted to 1.9 µM (≈ 0.79 µg/mL). On the same count and under the same terms, to `CCc1c(COC(=O)NS(C)(=O)=O)c(-c2ccc(Cl)cc2)nn1-c1ccc(Cl)cc1` [Compound 15] belongs 7.8 µM (≈ 3.65 µg/mL). `CC(C)CCOc1ccc(NC(=S)Nc2ccc(OCCC(C)C)cc2)cc1` [ISO, isoxyl, reference compound]: the “resistance of EthA mutant (C253R)” value in assay [2] is reported as 4–8 folds. As for `CC(=O)Nc1ccc(/C=N/NC(N)=S)cc1` [TAC, thioacetazone, reference compound], the “resistance of EthA mutant (C253R)” value in assay [2] is 4–8 folds.
